# Assay results from ChEMBL document CHEMBL4138287, “Total Synthesis of the Flavonoid Natural Product Houttuynoid A” (J Nat Prod, 2018).
# pIC50: −log10 of the molar value.
# Tested on: Herpesviridae sp.
# Assay: Antiviral activity against Herpes simplex virus infected in African green monkey Vero cells measured at 24 hrs post infection at 2 mins interval for 25 times
# Format: functional, organism-based
row,Structure (SMILES),pIC50
1,CCCCCCCCCc1cc2c(-c3oc4cc(O)cc(O)c4c(=O)c3O[C@@H]3O[C@H](CO)[C@H](O)[C@H](O)[C@H]3O)ccc(O)c2o1,4.24
2,CCCCCCCCCc1oc2c(O)ccc(-c3oc4cc(O)cc(O)c4c(=O)c3O[C@@H]3O[C@H](CO)[C@H](O)[C@H](O)[C@H]3O)c2c1C=O,4.63
